Test results reported in PubChem BioAssay AID1259411 (Chemical Carcinogenesis Research Information System (CCRIS), 2018).
Calls of active or inactive are those of the source. How the calls were made is not given here.

System: rodent carcinogenicity bioassays, tumor incidence
Assay: CCRIS carcinogenicity studies
Method in brief: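 Archive of carcinogenicity, mutagenicity, tumor promotion and tumor inhibition results drawn from journals, NCI reports and other sources, expert-reviewed; covers 1985-2011 and is no longer updated.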

In the case of `CCc1ccc(C(c2ccc(CC)cc2)C(Cl)Cl)cc1`, the carcinogen call (Species: MOUSE, Strain/Sex: B6C3F1/FEMALE, Route: ORAL, Dose: 0, 5000 IN DIET FOR FIRST 48 WK FOLLOWED BY 1000 PPM IN DIET FOR LAST 57 WK, 10000 PPM IN DIET FOR 48 WK FOLLOWED BY 300, Dose: 0, 5000 IN DIET FOR FIRST 48 WK FOLLOWED BY 1000 PPM IN DIET FOR LAST 57 WK, 10000 PPM IN DIET FOR 48 WK FOLLOWED BY 300, Tumor Site: Type of Lesion: LIVER: HEPATOCELLULAR CARCINOMA OR ADENOMA) is reported as “equivocal”, the carcinogen call (Species: MOUSE, Strain/Sex: B6C3F1/MALE, Route: ORAL, Dose: 0, 2,500, 5,000 PPM IN DIET FOR 105 WK (STUDY DURATION: 105 WK), Dose: 0, 2,500, 5,000 PPM IN DIET FOR 105 WK (STUDY DURATION: 105 WK)) is reported as “inactive; negative” and the carcinogen call (Species: RAT, Strain/Sex: F344/FEMALE, Route: ORAL, Dose: 0, 3,500, 7,000 PPM IN DIET FOR 105 WK (STUDY DURATION: 105 WK), Dose: 0, 3,500, 7,000 PPM IN DIET FOR 105 WK (STUDY DURATION: 105 WK)) is reported as “inactive; negative”. For the same molecule, the carcinogen call (Species: RAT, Strain/Sex: F344/MALE, Route: ORAL, Dose: 0, 3,500, 7,000 PPM IN DIET FOR 105 WK (STUDY DURATION: 105 WK), Dose: 0, 3,500, 7,000 PPM IN DIET FOR 105 WK (STUDY DURATION: 105 WK)) was “inactive; negative”.

`CCCCCN(CCCCC)N=O` was tested, and the carcinogen call (Species: RAT, Strain/Sex: WISTAR/FEMALE, Route: SUBCUTANEOUS, Dose: 0, 62.5, 125, 250 MG/KG BW 1/WK FOR 25 WK (STUDY DURATION: 1 YR), Dose: 0, 62.5, 125, 250 MG/KG BW 1/WK FOR 25 WK (STUDY DURATION: 1 YR), Tumor Site: Type of Lesion: NASAL CAVITY: POLYPOID ADENOMA, LUNG: BRONCHIOALVEOLAR ADENOMA) was “active; positive” and the carcinogen call (Species: RAT, Strain/Sex: WISTAR/MALE, Route: SUBCUTANEOUS, Dose: 0, 62.5, 125, 250 MG/KG BW 1/WK FOR 25 WK (STUDY DURATION: 1 YR), Dose: 0, 62.5, 125, 250 MG/KG BW 1/WK FOR 25 WK (STUDY DURATION: 1 YR), Tumor Site: Type of Lesion: NASAL CAVITY: POLYPOID ADENOMA, LUNG: BRONCHIOALVEOLAR ADENOCARCINOMA, BRONCHIOALVEOLAR ADENOMA) was “active; positive”.

`COc1nc(C)nc(NC(=O)NS(=O)(=O)c2ccccc2Cl)n1` was tested, and the carcinogen call (Species: Rat, Strain/Sex: CD/Female (50/group), Route: Oral, Dose: 0, 100, 500, 2,500 ppm in diet for 2 yr, Dose: 0, 100, 500, 2,500 ppm in diet for 2 yr) was “inactive; negative (study details not given in source; purity 92-95%)” and the carcinogen call (Species: Rat, Strain/Sex: CD/Male (50/group), Route: Oral, Dose: 0, 100, 500, 2,500 ppm in diet for 2 yr, Dose: 0, 100, 500, 2,500 ppm in diet for 2 yr) was “inactive; negative (study details not given in source; purity 92-95%)”.

`CC(C)O` was tested, and the carcinogen call (Species: MOUSE, Strain/Sex: CD-1/FEMALE, Route: INHALATION, Dose: 0, 500, 2500, 5000 PPM 6 HR/D 5 D/WK FOR 78 WK (STUDY DURATION: 78 WK), Dose: 0, 500, 2500, 5000 PPM 6 HR/D 5 D/WK FOR 78 WK (STUDY DURATION: 78 WK)) was “inactive; negative”, the carcinogen call (Species: MOUSE, Strain/Sex: CD-1/MALE, Route: INHALATION, Dose: 0, 500, 2500, 5000 PPM 6 HR/D 5 D/WK FOR 78 WK (STUDY DURATION: 78 WK), Dose: 0, 500, 2500, 5000 PPM 6 HR/D 5 D/WK FOR 78 WK (STUDY DURATION: 78 WK)) was “inactive; negative” and the carcinogen call (Species: RAT, Strain/Sex: F344/FEMALE, Route: INHALATION, Dose: 0, 500, 2500, 5000 PPM 6 HR/D 5 D/WK FOR 104 WK (STUDY DURATION: 104 WK), Dose: 0, 500, 2500, 5000 PPM 6 HR/D 5 D/WK FOR 104 WK (STUDY DURATION: 104 WK)) was “inactive; negative”. The carcinogen call (Species: RAT, Strain/Sex: F344/MALE, Route: INHALATION, Dose: 0, 500, 2500, 5000 PPM 6 HR/D 5 D/WK FOR 104 WK (STUDY DURATION: 104 WK), Dose: 0, 500, 2500, 5000 PPM 6 HR/D 5 D/WK FOR 104 WK (STUDY DURATION: 104 WK)) was “inactive; negative”.

In the case of `O=CC=O`, the carcinogen call (Species: MOUSE, Strain/Sex: CD-1/FEMALE, Route: DERMAL, Dose: 0, 50 UMOL/O.1 ML DMSO 2/WK FOR 5 WK FOLLOWED 1 WK LATER BY 0.1 ML ACETONE 2/WK FOR 47 WK (STUDY DURATION: 52 WK)) is reported as “inactive; negative”.

For `Oc1ccc2ccc3c4ccc5ccccc5c4c4c(c3c2c1O)O4`, the carcinogen call (Species: MOUSE, Strain/Sex: ICR/FEMALE, Route: INTRAPERITONEAL, Dose: 0, 25 NMOL (TOTAL DOSE) ADMINISTERED IN DOSES OF 1/7, 2/7, AND 4/7 ON DAYS 1, 7, AND 15 OF LIFE, RESPECTIVELY (STUDY DUR, Tumor Site: Type of Lesion: LUNG: TUMOR) was “active; positive”, the carcinogen call (Species: MOUSE, Strain/Sex: ICR/FEMALE, Route: INTRAPERITONEAL, Dose: 0, 25 NMOL TOTAL DOSE INJECTED IN DOSES OF 1/7 ON DAY 1, 2/7 ON DAY 8, AND 4/7 ON DAY 15 OF LIFE (STUDY DURATION: 35 WK), Tumor Site: Type of Lesion: LIVER: TUMOR, LUNG: TUMOR) was “active; positive” and the carcinogen call (Species: MOUSE, Strain/Sex: ICR/MALE, Route: INTRAPERITONEAL, Dose: 0, 25 NMOL (TOTAL DOSE) ADMINISTERED IN DOSES OF 1/7, 2/7, AND 4/7 ON DAYS 1, 7, AND 15 OF LIFE, RESPECTIVELY (STUDY DUR, Tumor Site: Type of Lesion: LUNG: TUMOR, LIVER: TUMOR) was “active; positive”. For the same molecule, the carcinogen call (Species: MOUSE, Strain/Sex: ICR/MALE, Route: INTRAPERITONEAL, Dose: 0, 25 NMOL TOTAL DOSE INJECTED IN DOSES OF 1/7 ON DAY 1, 2.7 ON DAY 8, AND 4/7 ON DAY 15 OF LIFE (STUDY DURATION: 35 WK), Tumor Site: Type of Lesion: LUNG:TUMOR, LIVER: TUMOR) was “active; positive”, the carcinogen call (Species: RAT, Strain/Sex: CD-1/FEMALE, Route: INJECTION, Dose: 0, 0.2 UMOL IN 0.1 ML DMSO INJECTED BENEATH EACH OF THE 6 NIPPLES ON THE LEFT SIDE (STUDY DURATION: 41 WK), Tumor Site: Type of Lesion: MAMMARY GLAND: TUMOR) was “active; positive” and the carcinogen call (Species: RAT, Strain/Sex: STRAIN-CD/FEMALE, Route: INJECTION, Dose: 0, 0.2 UMOL IN 0.1 ML DMSO INJECTED UNDER EACH OF THE 3 LEFT THORACIC NIPPLES FOLLOWED THE NEXT DAY BY SIMILAR TREATMENT, Tumor Site: Type of Lesion: MAMMARY GLAND: TUMOR) was “active; positive”.

With `O=C1NCCN1/N=C/c1ccc([N+](=O)[O-])o1` the carcinogen call (Species: RAT, Route: ORAL, Tumor Site: Type of Lesion: LYMPHATIC SYSTEM: LYMPHOBLASTIC LYMPHOMA, MAMMARY GLAND) was “active; positive”.
